Measurements taken from patent US20250144099A1, “INK4 TUMOR SUPPRESSOR PROTEINS MEDIATE RESISTANCE TO CDK4/6 KINASE INHIBITORS” (MEMORIAL SLOAN-KETTERING CANCER CENTER, priority 2021, published 2025).

Experiments:
[1] = tested on: CDK6 expression in PTEN knockdown cells; test: Immunoblotting of CDK6 expression in PTEN knockdown cells; format: cell-based, human; parameters: dose or concentration left out as unconfirmed; details: MK-2206 as printed
Description: Cell lysates were collected in RIPA buffer (Thermo Fisher Scientific) supplemented with protease and phosphatase inhibitors (Pierce). Protein concentration was quantified by using the BCA kit (Fisher Scientific). […] of protein lysates were loaded onto 4-12% SDS-PAGE gels (Invitrogen) for electrophoresis and transferred onto nitrocellular membranes. Blots were blocked with Intercept™ (TBS) Blocking Buffer (LI-COR Bioscience #927-60001) and incubated with primary antibody at 4° C. overnight. Secondary antibodies conjugated with fluorescence (LI-COR Bioscience #926-68071 and #926-32210) were incubated for 1 h at room temperature and blots were scanned by Odyssey Clx Imaging System from LI-COR Bioscience.

CDK6 = CDK6 (Homo sapiens, UniProt Q00534); test: IP-in vitro kinase assay (ADP-Glo, Rb substrate) of immunoprecipitated CDK6; format: biochemical; parameters: Upregulation of wild-type CDK6 expression as a recurrent mechanism; endogenous in cells; host or cells: MCF-7 FAT1 CRISPR knockout (CDK6-high) cells; details: IP-CDK6 from resistant CDK6-high (FAT1 loss) MCF7 cells, pre-treatment with 100 nM abemaciclib
Description: IP-in vitro kinase assay. […] Lysates were collected as described above. […] of cell lysates were incubated with […] CDK4 (# sc-23896, Santa Cruz Biotechnology) or CDK6 (# sc-177-G, Santa Cruz Biotechnology) antibody at 4° C. overnight. 20 μl of ChIP-grade magnetic beads (Thermo Fisher Scientific) was added into each IP tube and incubated for 2 hours. IP samples were washed 2 times with kinase lysis buffer and 2 times with kinase reaction buffer (40 mM Tris-HCl [pH 7.5], 20 mM MgCl2, 0.1 mg/ml BSA, from SignalChem, #K03-09, with […] DTT adding freshly). 100 μl of kinase reaction buffer with 0.5 μg of recombinant human Rb1 protein and 100 μM of ATP was added into each tube.

Sequence of CDK6 (Q00534 whole entry): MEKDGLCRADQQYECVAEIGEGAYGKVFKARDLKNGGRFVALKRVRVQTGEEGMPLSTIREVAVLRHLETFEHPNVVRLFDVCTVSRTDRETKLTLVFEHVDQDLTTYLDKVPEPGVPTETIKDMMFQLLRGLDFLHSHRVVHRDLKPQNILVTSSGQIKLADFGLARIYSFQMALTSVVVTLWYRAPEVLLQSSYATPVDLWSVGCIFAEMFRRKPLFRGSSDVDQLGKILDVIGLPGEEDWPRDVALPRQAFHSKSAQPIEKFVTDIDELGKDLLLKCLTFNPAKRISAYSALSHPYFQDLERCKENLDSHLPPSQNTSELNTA
Sequence of CDK6 (P30281 whole entry partner): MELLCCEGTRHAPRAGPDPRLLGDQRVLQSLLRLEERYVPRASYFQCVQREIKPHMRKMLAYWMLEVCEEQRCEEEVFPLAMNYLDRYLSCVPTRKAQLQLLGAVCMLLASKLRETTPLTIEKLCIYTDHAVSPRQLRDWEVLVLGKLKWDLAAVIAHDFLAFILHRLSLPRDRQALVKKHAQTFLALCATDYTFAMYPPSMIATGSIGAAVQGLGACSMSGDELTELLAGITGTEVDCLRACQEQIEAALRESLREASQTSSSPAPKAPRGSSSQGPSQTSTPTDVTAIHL

CDK6 activity reduced compared to untreated (CDK6) [%]	SMILES	CDK6 expression [1]
	NC1(c2ccc(-c3nc4ccn5c(=O)[nH]nc5c4cc3-c3ccccc3)cc2)CCC1 [MK-2206]	suppressed the expression of CDK6
48	CCN1CCN(Cc2ccc(Nc3ncc(F)c(-c4cc(F)c5nc(C)n(C(C)C)c5c4)n3)nc2)CC1 [abemaciclib]	
